Legend:
[1] = system: pERK in RAS-mutant cancer cell lines; test: Phospho-ERK inhibition (AlphaLISA), panel of RAS-mutant cancer cell lines; format: cell-based, human; settings: in 10 of the 13 RAS-mutant cell lines tested
Description: All cancer cell lines (A375, A101D, A2058, RKO, HT29 SK-MEL 30, IPC298, HepG2, HCT-116, Lovo, SWV620, SW480, NCI-H358, NCI-H2122, Calu-6, NCIH2087, NCIH1755, NCIH1666 and Mewo) were obtained from ATCC and cultured in RPMI-1640 medium (Gibco) supplemented with 5% heat inactivated fetal bovine serum (FBS, Wisent) at 37° C. under 5% CO2. Cells were maintained in T175 flasks (Greiner). They were passaged by removing the culture medium, washing once in 10 mL of room temperature Phosphate Buffered Saline (PBS; Wisent) and incubating at 37° C. with 2 mL of 0.05% Trypsin (Thermo-Fisher). […]
After treatment, media was removed and cells were lysed in 50 μL of 1× AlphaScreen Ultra Lysis Buffer (Perkin Elmer). […] After completion of the reactions, the signals were recorded on an EnVision plate reader (Perkin Elmer) using built in AlphaLISA® settings.
The effect of each compound dilution on the pERK signal was expressed in % inhibition and calculated as follows. […]
The ability of each compound to inhibit pERK signal was expressed as an IC50 value obtained by plotting the inhibition values for each data point of a dilution series and fitting the obtained curves using a log(agonist) versus response-variable slope (four parameters) function using GraphPadPrism (V7.0) or Dotmatics Screening Ultra platform. […]

[2] = Body weight during TGI experiments; format: in vivo, NU(NCr)-Foxn1nu female mice; settings: repeated oral treatment (QD or BID), Example 99 sodium salt suspension
Description: NU(NCr)-Foxn1nu mice were inoculated subcutaneously at the right flank with 1×10^6 (HCT-116 or A375) or 3×10^6 (A101D, A2058, RKO, HT29 SK-MEL 30, Calu-6, HepG2, Lovo, NCI-H2122, NCIH1666 and NCIH1755) tumour cells in 0.2 mL of the 50:50 PBS:Matrigel mixture for tumour development. Tumour measurements were taken with an electronic microcalliper three times weekly. In addition, body weights were recorded at these times. Tumor volume was calculated, taking length to be the longest diameter across the tumor and width to be the corresponding perpendicular diameter using the following formula: ((length×width×[…])/2).
For tumor growth inhibition (TGI) experiments, the treatment was performed when mean tumour size reached approximately 200 mm^3, with at least 7 mice for each time point randomized to balance the average tumour size for each treatment group. Mice were administered orally (QD or BID) with a suspension of Example 99 sodium salt in a formulation consisting of 1% NMP, 0.3% Tween-80, pH 9.1. Example 99: Na+ powder was directly resuspended in the complete blank formulation. Dosing volume was 10 mL/kg, yielding the indicated doses (doses are in mg per kg or mpk). Tumours were measured with an electronic microcalliper three times weekly. In addition, body weights were recorded at these times. Tumor volume was calculated as described above. […]

CRAF = CRAF (Homo sapiens, UniProt P04049); test: CRAF kinase activity assay (ADP-Glo); format: biochemical; settings: read-out: Kinase IC50 (nM) CRAF
Summary of the method: (§1)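 ADP-Glo luminescence assay of BRAF and CRAF kinase reactions with MEK1 substrate and ATP. Reactions ran 2 h at 30 °C with compound over nine concentrations from 100 nM to 0.01 nM, at 0.05% DMSO final. IC50 came from four-parameter variable-slope fits of % inhibition.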

BRAF = BRAF (Homo sapiens (Human), UniProt P15056); test: BRAF kinase activity assay (ADP-Glo); format: biochemical; settings: read-out: Kinase IC50 (nM) BRAF
Summary of the method: as §1

BRAF, sequence (P15056 whole entry): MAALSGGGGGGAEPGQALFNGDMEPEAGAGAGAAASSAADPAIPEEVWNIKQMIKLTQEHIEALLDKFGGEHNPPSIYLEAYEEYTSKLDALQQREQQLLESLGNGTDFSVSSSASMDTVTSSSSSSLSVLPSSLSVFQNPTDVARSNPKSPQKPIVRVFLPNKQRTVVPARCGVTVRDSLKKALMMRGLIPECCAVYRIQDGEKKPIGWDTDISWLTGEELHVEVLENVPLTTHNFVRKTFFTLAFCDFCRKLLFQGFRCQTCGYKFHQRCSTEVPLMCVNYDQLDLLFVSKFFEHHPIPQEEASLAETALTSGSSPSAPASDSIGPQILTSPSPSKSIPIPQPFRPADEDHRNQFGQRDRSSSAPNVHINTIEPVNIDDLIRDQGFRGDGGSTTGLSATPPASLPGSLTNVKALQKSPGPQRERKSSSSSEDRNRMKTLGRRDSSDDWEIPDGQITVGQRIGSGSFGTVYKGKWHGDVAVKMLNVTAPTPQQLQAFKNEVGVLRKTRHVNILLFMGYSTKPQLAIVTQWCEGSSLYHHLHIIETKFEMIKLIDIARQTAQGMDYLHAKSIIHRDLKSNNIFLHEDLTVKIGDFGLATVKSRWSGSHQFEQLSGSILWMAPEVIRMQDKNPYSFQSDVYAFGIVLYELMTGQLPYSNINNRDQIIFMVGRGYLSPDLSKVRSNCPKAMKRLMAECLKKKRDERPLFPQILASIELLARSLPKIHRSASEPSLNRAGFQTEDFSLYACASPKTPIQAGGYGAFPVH
CRAF, sequence (P04049 whole entry, looked up): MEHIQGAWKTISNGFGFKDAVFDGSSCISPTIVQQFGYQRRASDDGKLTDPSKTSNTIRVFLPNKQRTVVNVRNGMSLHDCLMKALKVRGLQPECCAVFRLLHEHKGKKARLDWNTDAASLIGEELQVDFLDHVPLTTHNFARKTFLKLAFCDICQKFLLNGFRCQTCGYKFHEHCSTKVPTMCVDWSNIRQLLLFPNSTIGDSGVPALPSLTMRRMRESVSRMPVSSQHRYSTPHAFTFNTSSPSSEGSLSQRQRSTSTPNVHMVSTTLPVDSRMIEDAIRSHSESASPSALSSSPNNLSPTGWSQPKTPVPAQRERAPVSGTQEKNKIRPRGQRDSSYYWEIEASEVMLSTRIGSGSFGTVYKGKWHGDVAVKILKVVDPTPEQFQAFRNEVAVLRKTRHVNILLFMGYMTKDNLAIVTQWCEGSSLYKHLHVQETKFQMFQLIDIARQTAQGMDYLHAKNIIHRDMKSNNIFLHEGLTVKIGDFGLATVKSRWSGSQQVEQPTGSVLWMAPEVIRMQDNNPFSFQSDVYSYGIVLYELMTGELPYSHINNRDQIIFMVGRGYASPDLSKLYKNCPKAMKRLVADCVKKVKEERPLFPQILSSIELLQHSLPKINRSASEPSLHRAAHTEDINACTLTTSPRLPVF

| YMIN of pERK IC50 curves [1] [%] | IC50 (CRAF) [nM] | IC50 (BRAF) [nM] | Structure (SMILES) | change in body weight compared to vehicle-treated animals [2] |
| --- | --- | --- | --- | --- |
| < −30 |  |  | Cc1ccc2c(Nc3cccc(Cl)c3F)nccc2c1NC(=O)c1csc2c(N)ncnc12 [Belvarafenib, reference compound] |  |
|  | < 10 | < 1 | Nc1cccc2c1ncn2-c1ccc2ncnc(Nc3c(F)ccc(NS(=O)(=O)c4cccc(Cl)c4Cl)c3F)c2n1 [Example 99] | did not result in any change in body weight |
